In patent US12084423B2, “Piperlongumine analogues and uses thereof” (BioVentures, LLC, priority 2018, dated 2024):

What was measured:
[1] = test system: IR-induced senescent cells (IR-SC WI-38); test: Cell viability of IR-induced senescent WI-38 cells after 72 hours of compound treatment; assay type: cell-based; conditions: for EC50: Homo sapiens, IR-induced senescent WI-38 cells, cell viability at 72 hours post-treatment; for selective killing of senescent WI38 cells over normal WI38 cells: ionizing radiation (IR, 10 Gy) induced senescent vs normal WI38 cells, viability at 72 hours, percent of control
Protocol: (§1) Normal WI-38 cells and IR-induced senescent cells were incubated with increasing concentrations of compounds of Formula (I). At 72 hours post-treatment cell viability was measured and ED50was calculated. Table 1 depicts the ED50 values of the compounds of Formula (I) against normal and IR-induced senescent cells.

[2] = test system: normal WI-38 cells; test: Cell viability of normal WI-38 cells after 72 hours of compound treatment; assay type: cell-based; conditions: Homo sapiens, cell viability at 72 hours post-treatment
Protocol: as §1

Structure (SMILES)	EC50 [1] [µM]	EC50 [2] [µM]	selective killing of senescent WI38 cells over normal WI38 cells [1]
COc1cc(/C=C/C(=O)N2CCC=C(F)C2=O)cc(OC)c1OC [No 1]	15.3	12.1	–
COc1cc(/C=C/C(=O)N2CCC=C(Cl)C2=O)cc(OC)c1OC [No 2]	0.65	5.3	–
COc1cc(/C=C/C(=O)N2CCC=C(Br)C2=O)cc(OC)c1OC [No 3]	0.52	5.4	–
COc1cc(/C=C/C(=O)N2CCC=C(I)C2=O)cc(OC)c1OC [No 4]	2.3	18.3	–
COc1cc(/C=C/C(=O)N2CCCC=C(Cl)C2=O)cc(OC)c1OC [No 5]	0.45	1.7	–
COc1cc(/C=C/C(=O)N2CCCC=C(Br)C2=O)cc(OC)c1OC [No 6]	0.56	3.6	–
COc1cc(/C=C/C(=O)N2OCC=CC2=O)cc(OC)c1OC [No 7]	8	47.7	–
COc1ccc(/C=C/C(=O)N2CCC=C(Cl)C2=O)cc1 [No 8]	0.51	0.35	–
COc1ccc(/C=C/C(=O)N2CCC=C(Br)C2=O)cc1 [No 9]	0.63	1.1	–
COc1ccc(/C=C/C(=O)N2CCCC=C(Cl)C2=O)cc1 [No 10]	0.16	1.5	–
COc1ccc(/C=C/C(=O)N2CCCC=C(Br)C2=O)cc1 [No 11]	1.3	5.8	–
C=CC(=O)N1OCC=CC1=O [No 12]	5.7	16.3	–
O=C1C(Br)=CCCN1C(=O)c1cc2ccccc2oc1=O [No 13]	1.7	6.2	–
O=C1C(Br)=CCCCN1C(=O)c1cc2ccccc2oc1=O [No 14]	4	5	–
O=C1C(Cl)=CCCN1S(=O)(=O)/C=C/c1ccccc1 [No 15]	0.94	8.8	–
O=C1C(Br)=CCCN1S(=O)(=O)/C=C/c1ccccc1 [No 16]	2.8	28.1	–
COc1cc(/C=C/C(=O)N2OCC=CC2=O)cc(OC)c1OC [XZ-12037, (E)-2-(β-(3,4,5-trimethoxyphenyl)acryloyl)-2H-1,2-oxazin-3(6H)-one]	–	–	selectively kills senescent WI38 cells over normal WI38 cells
COc1cc(C(Cl)=CC(=O)N2CCCC=CC2=O)cc(OC)c1OC [XZ-12089, (E)-β-chloro-1-(β-(3,4,5-trimethoxyphenyl)acryloyl)-1,5,6,7-tetrahydro-2H-azepin-2-one]	–	–	selectively kills senescent WI38 cells over normal WI38 cells
